Reference: PubChem BioAssay AID330 (DTP/NCI, 2004)
Values joined by “and” are separate entries in the source; they are usually repeats but may differ in a detail not shown here. Equal values may be shown once. Toxic doses and inconclusive results are not listed.

Test system: P388 leukemia ip, CD2F1 mice, survival T/C
Experiment: NCI In Vivo Anticancer Drug Screen. Data for tumor model P388 Leukemia (intraperitoneal) in CD2F1 (CDF1) mice
Settings: endpoint: median survival time, higher = longer survival
Method in brief: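 Mice carrying the transplanted tumor received test compound or vehicle. Survival was recorded in each group, and the value is the treated-group measurement divided by that of the vehicle-treated control group.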

[1] = dose: 25.0 mg/kg/injection, schedule: Q01DX009 (ip), vehicle: saline with Tween-80
[2] = dose: 50.0 mg/kg/injection, schedule: Q01DX009 (ip), vehicle: saline with Tween-80
[3] = dose: 50.0 mg/kg/injection, schedule: Q01DX005 (ip), vehicle: Klucel (hydroxypropylcellulose) (HPC)
[4] = dose: 100.0 mg/kg/injection, schedule: Q01DX005 (ip), vehicle: Klucel (hydroxypropylcellulose) (HPC)
[5] = dose: 50.0 mg/kg/injection, schedule: Q01DX009 (ip), vehicle: Klucel (hydroxypropylcellulose) (HPC)

COc1ccc(/C=C/c2ccc(S(=O)(=O)c3ccc(/C=C/c4ccc(OC)cc4)c(NC(C)=O)c3)cc2NC(C)=O)cc1
T/C [1]: 97 % of control | T/C [2]: 97 % of control | T/C (dose: 100.0 mg/kg/injection, schedule: Q01DX009 (ip), vehicle: saline with Tween-80): 92 % of control

CC(C)[C@](O)(C(=O)OC1CCN2CCC(CO)C12)[C@H](C)O (some centres not stated)
T/C (dose: 11.5 mg/kg/injection, schedule: Q01DX009 (ip), vehicle: saline): 111 % of control | T/C (dose: 23.0 mg/kg/injection, schedule: Q01DX009 (ip), vehicle: saline): 107 % of control | T/C (dose: 46.0 mg/kg/injection, schedule: Q01DX009 (ip), vehicle: saline): 105 % of control | T/C (dose: 92.0 mg/kg/injection, schedule: Q01DX009 (ip), vehicle: saline): 98 % of control

CCN(CC)Cc1cc(N=Nc2c(O)ccc3c(N=Nc4ccc(O)c(CN(CC)CC)c4)c(O)ccc23)ccc1O
T/C [3]: 108 % of control | T/C [4]: 109 % of control

NC(=S)c1cc(Cl)cc(Cl)c1N
T/C (dose: 3.75 mg/kg/injection, schedule: Q01DX005 (ip), vehicle: Klucel (hydroxypropylcellulose) (HPC)): 100 % of control | T/C (dose: 7.5 mg/kg/injection, schedule: Q01DX005 (ip), vehicle: Klucel (hydroxypropylcellulose) (HPC)): 98 % of control | T/C (dose: 15.0 mg/kg/injection, schedule: Q01DX005 (ip), vehicle: Klucel (hydroxypropylcellulose) (HPC)): 99 % of control and 96 % of control | T/C (dose: 30.0 mg/kg/injection, schedule: Q01DX005 (ip), vehicle: Klucel (hydroxypropylcellulose) (HPC)): 94 % of control | T/C (dose: 60.0 mg/kg/injection, schedule: Q01DX005 (ip), vehicle: Klucel (hydroxypropylcellulose) (HPC)): 92 % of control

CCOC(=O)NN(C(=O)OCC)C(C(=O)C1CCCCC1)N(NC(=O)OCC)C(=O)OCC
T/C [5]: 102 % of control | T/C (dose: 100.0 mg/kg/injection, schedule: Q01DX009 (ip), vehicle: Klucel (hydroxypropylcellulose) (HPC)): 100 % of control | T/C (dose: 200.0 mg/kg/injection, schedule: Q01DX009 (ip), vehicle: Klucel (hydroxypropylcellulose) (HPC)): 96 % of control

Cc1cc(NCCCCCCCCNc2cc(C)nc3cc(N(C)C)ccc23)c2ccc(N(C)C)cc2n1
T/C (dose: 12.5 mg/kg/injection, schedule: Q04DX002 (ip), vehicle: distilled water + Tween-80 + alcohol): 108 % of control | T/C (dose: 25.0 mg/kg/injection, schedule: Q04DX002 (ip), vehicle: distilled water + Tween-80 + alcohol): 118 % of control | T/C (dose: 100.0 mg/kg/injection, schedule: Q04DX002 (ip), vehicle: distilled water + Tween-80 + alcohol): 172 % of control

CC(N)C(=O)OCN1C(=O)C2C3C=CC(C2C1=O)C1C2C(=O)N(COC(=O)C(C)N)C(=O)C2C31 (configuration not stated)
T/C (dose: 25.0 mg/kg/injection, schedule: Q01DX009 (ip), vehicle: water): 109 % of control and 112 % of control | T/C (dose: 50.0 mg/kg/injection, schedule: Q01DX009 (ip), vehicle: water): 108 % of control | T/C (dose: 100.0 mg/kg/injection, schedule: Q01DX009 (ip), vehicle: water): 178 % of control and 193 % of control

CCCCCCCCCCCCOC(=O)c1ccc(OP(=O)(O)OCc2ccccc2)cc1
T/C (dose: 12.5 mg/kg/injection, schedule: Q01DX009 (ip), vehicle: Klucel (hydroxypropylcellulose) (HPC)): 104 % of control | T/C (dose: 25.0 mg/kg/injection, schedule: Q01DX009 (ip), vehicle: Klucel (hydroxypropylcellulose) (HPC)): 121 % of control | T/C [5]: 103 % of control and 115 % of control

O=C(O)c1ccccc1N=Nc1ccc(N(CCCl)CCCl)cc1
T/C (dose: 3.13 mg/kg/injection, schedule: Q04DX003 (ip), vehicle: Klucel (hydroxypropylcellulose) (HPC)): 122 % of control | T/C (dose: 6.25 mg/kg/injection, schedule: Q01DX009 (ip), vehicle: saline with Tween-80): 166 % of control | T/C (dose: 12.5 mg/kg/injection, schedule: Q01DX009 (ip), vehicle: saline with Tween-80): 152 % of control and 154 % of control | T/C (dose: 12.5 mg/kg/injection, schedule: Q04DX003 (ip), vehicle: Klucel (hydroxypropylcellulose) (HPC)): 177 % of control | T/C [1]: 162 % of control and 166 % of control | T/C [2]: 99 % of control

Cc1ccc(S(=O)(=O)C(Cc2cc(Cl)cc(Cl)c2O)C(=O)c2ccccc2)cc1 (configuration not stated)
T/C [3]: 101 % of control | T/C [4]: 90 % of control | T/C (dose: 200.0 mg/kg/injection, schedule: Q01DX005 (ip), vehicle: Klucel (hydroxypropylcellulose) (HPC)): 92 % of control

CSc1nc2c(nc(N)n2C2OC(COC(C)=O)C(OC(C)=O)C(OC(C)=O)C2OC(C)=O)c(=O)n1C (configuration not stated)
T/C (dose: 120.0 mg/kg/injection, schedule: Q01DX005 (ip), vehicle: saline with Tween-80): 92 % of control | T/C (dose: 240.0 mg/kg/injection, schedule: Q01DX005 (ip), vehicle: saline with Tween-80): 96 % of control
